{
  "source": "patent US20180177749A1",
  "about": "“USE OF CYP EXPRESSION TO DIRECT THERAPEUTIC INTERVENTION IN CANCER” (REGENTS OF THE UNIVERSITY OF MINNESOTA, priority 2016, published 2018)",
  "key": {"[1]": {"tested_on": "MCF-7", "experiment": "MTT cell proliferation assay, MCF-7", "type": "cell-based", "conditions": "Homo sapiens, MCF7", "protocol": "Cells were grown at 37° C. in a 5% CO2 incubator. […] MTT was then added (5 mg/ml), and after 2 h of incubation, the plates were centrifuged. The supernatant was removed; DMSO was added, and the absorbance was read at 540 nm with a BioTek 96-well plate reader."}, "[2]": {"experiment": "MTD for daily dosing by two-fold dose escalation in tumor-bearing mice", "type": "in vivo"}, "[3]": {"tested_on": "MCF-7 cells", "experiment": "Western blot of signaling proteins, MCF-7", "type": "cell-based, human", "protocol": "RIPA extracts of cells were prepared as described previously, in the presence of protease inhibitors and phosphatase inhibitors. Protein concentrations were determined by the micro-bicinchoninic acid (BCA) method, and 30 μg of protein was used for each lane of the SDS-polyacrylamide gel Western blot. Relative protein expression was estimated using GAPDH or β-actin as an internal standard."}, "[4]": {"experiment": "Plasma concentration after ip dosing", "type": "in vivo, mice", "conditions": "1 hour after the daily dose, 4 mg/kg/day ip"}, "[5]": {"tested_on": "MDA-MB-435/LCC6", "experiment": "Measurement of OCR and ECAR, MDA-MB-435/LCC6", "type": "cell-based", "conditions": "20 and 40 μM", "protocol": "(§1) Cells were maintained in growth medium consisting of 10% FBS at 37° C. with 5% CO2 and seeded at 100,000 cells per well in XF24-well cell culture microplates (Seahorse Bioscience, North Billirica, Mass.). Concentrated stocks of HBB were prepared in DMSO. HBB was diluted to 10× working concentration in XF assay medium (a non-buffered medium including 2 mM L-glutamine but no sodium bicarbonate (buffering agent), glucose, or sodium pyruvate). Assays were performed in the XF Extracellular Flux Analyzer (Seahorse Bioscience that measures uptake and excretion of metabolic end products in real time). Oxygen consumption rate (OCR) and extracellular acidification rate (ECAR) were measured using an XF Assay Kit. OCR is reported in pmoles/minute and ECAR in mpH/minute. Before analysis, the cells were switched from culture medium to XF assay medium. After baseline measurements, 75 μl of HBB prepared in assay medium was injected into each well to reach final working concentrations. After addition of HBB, OCR and ECAR were measured at 18-minute intervals. There were 5 replicates was performed for each data point for MCF-7, MDA-MB-231, T47D and MDA-MB-435 cell lines. There were 6 replicates for the studies of the 3-18 and 4-14 cell lines."}, "[6]": {"tested_on": "MCF-7 cells", "experiment": "Measurement of OCR and ECAR (extracellular flux), MCF-7", "type": "cell-based, human", "protocol": "as §1, with “There were 5 replicates was performed for each data point for MCF-7, MDA-MB-231, T47D and MDA-MB-435 cell lines.” left out"}, "[7]": {"tested_on": "MDA-MB-435/LCC6", "experiment": "Cell growth inhibition, MDA-MB-435/LCC6", "type": "cell-based", "conditions": "MDA-MB-435/LCC6, Triple negative"}, "[8]": {"tested_on": "T47D", "experiment": "MTT cell proliferation assay, T47D", "type": "cell-based, human", "protocol": "The human breast cancer cell lines MCF-7, T47D, and MDA-MB-231 described above were grown in Minimal Essential Medium (MCF-7), RPMI 1640 with insulin (0.2 U/mL) and 1 mM Na pyruvate (T47D) or DMEM containing 10% fetal bovine serum (FBS) (MDA-MB-231), which was defined as complete medium (CM). Cells were grown at 37° C. in a 5% CO2 incubator. […] MTT was then added (5 mg/ml), and after 2 h of incubation, the plates were centrifuged. The supernatant was removed; DMSO was added, and the absorbance was read at 540 nm with a BioTek 96-well plate reader."}, "[9]": {"target": "T1, CYP3A4 (Homo sapiens, UniProt P08684)", "T1 construct": "host or cells: insect cells (microsomes)", "T1 sequence (P08684 whole entry)": "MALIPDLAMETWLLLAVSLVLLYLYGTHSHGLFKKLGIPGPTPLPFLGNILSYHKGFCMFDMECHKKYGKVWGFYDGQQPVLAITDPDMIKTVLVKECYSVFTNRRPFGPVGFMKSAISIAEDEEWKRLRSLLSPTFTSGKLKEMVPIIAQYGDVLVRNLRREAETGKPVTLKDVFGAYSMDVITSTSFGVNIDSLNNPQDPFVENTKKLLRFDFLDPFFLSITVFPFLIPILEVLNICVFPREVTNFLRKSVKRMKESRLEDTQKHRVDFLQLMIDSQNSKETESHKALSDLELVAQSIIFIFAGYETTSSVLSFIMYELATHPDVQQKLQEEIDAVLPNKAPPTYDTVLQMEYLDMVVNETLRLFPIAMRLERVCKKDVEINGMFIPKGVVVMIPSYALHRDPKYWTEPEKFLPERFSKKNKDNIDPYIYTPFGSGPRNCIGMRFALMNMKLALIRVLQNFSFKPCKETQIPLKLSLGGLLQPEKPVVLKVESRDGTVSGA", "experiment": "Recombinant microsomal CYP-mediated EET biosynthesis (CYP3A4 Supersomes)", "type": "biochemical", "conditions": "for IC50: microsomal CYP3A4", "text": "(§2) Samples were submitted to liquid chromatography-electrospray ionization/multiple reaction monitoring/mass spectrometry (LC-ESI/MRM/MS) analysis in a Thermo Electron Quantum Discovery Max triple quadrupole mass spectrometer (Thermo Finnigan, San Jose, Calif.) coupled with an Agilent 1100 HPLC (Santa Clara, Calif.), using argon as the collision gas. […] A standard curve was obtained by linear regression of the peak area ratio of authentic EET regioisomers against internal standards. The amount of EETs in samples was calculated according to the standard curve. The (±)-5,6-EET regioisomer was not measured because it undergoes rapid internal degradation.\n(§3) CYP3A4 or 2C8 Supersomes™ (BD Biosciences) were incubated at 37° C. for 30 min in the presence of AA (5 μM) in […] Tris-HCl, pH 7.4, containing 1 mm EDTA and 1 mm NADPH. Reactions were terminated by adding methylene chloride (0.5 ml). Samples were centrifuged at 3,000 rpm for 10 min and 150 μl of the organic phases were evaporated under nitrogen. Samples were reconstituted in 20 μl of MeOH containing [^13C20]EET internal standards and submitted to a Thermo Electron Quantum Discovery Max triple quadrupole mass spectrometer (Thermo Finnigan, San Jose, Calif.) coupled with an Agilent 1100 HPLC (Santa Clara, Calif.) for analysis. […] Concentrations of EETs generated by CYP Supersomes™ were calculated by linear regression against standard curve generated with EET standards."}, "[10]": {"target": "T2, CYP3A4 vs CYP2C8 (Homo sapiens, UniProt P08684)", "T2 construct": "host or cells: insect cells (microsomes)", "T2 sequence (P08684 whole entry)": "as above", "experiment": "Recombinant microsomal CYP-mediated EET biosynthesis (CYP3A4 Supersomes)", "type": "biochemical", "conditions": "human, CYP3A4 or CYP2C8 Supersomes (recombinant microsomes), pH 7.4, probe arachidonic acid (AA), 5 μM; CYP3A4 vs CYP2C8; read-out: selectivity for CYP3A4 epoxygenase activity", "text": "as §2, §3"}, "[11]": {"conditions": "t-AUCB 2.5, 5 μM, metformin 2.5, 5 mM, HBB 20, 40 μM, rotenone 1 μM"}},
  "note": "Where two headings read alike, the source gives them in different places.",
  "data": [
    {"molecule": "CCCCCCNC(=N)NC(=N)NCc1ccccc1", "note": "[HBB, N1-hexyl-N5-benzyl-biguanide]", "values": [
      {"measurement": "IC50", "setting": "[1]; MCF-7, ER+[PR+]HER2−, read-out: IC50", "value": 20.1, "unit": "µM"},
      {"measurement": "IC50", "setting": "[1]; read-out: IC50 MCF-7", "value": 20, "unit": "µM"},
      {"measurement": "lethality", "setting": "[2]; 8 mg/kg/day ip, cohorts of 5 tumor-bearing mice", "value": "animal deaths within 3 days"},
      {"measurement": "MTD", "setting": "[2]; athymic nude (Foxn1nu/Foxn1nu), mouse, in vivo, ip", "value": 4, "unit": "mg/kg/day"},
      {"measurement": "dosing for signaling effects relative to metformin (lower)", "setting": "[3]", "value": 250, "unit": "fold"},
      {"measurement": "mTOR, S6 kinase and ERK", "setting": "[3]; 20 μM, by 24 hours, presence or absence of serum", "value": "Significant inhibition"},
      {"measurement": "onset of AMPK activation (phosphorylation)", "setting": "[3]; HBB 20 μM, metformin 5 mM", "value": "within 30 minutes to 1 hour"},
      {"measurement": "plasma concentration", "setting": "[4]", "value": 530, "unit": "nM"},
      {"measurement": "reduction of OCR and ECAR", "setting": "[5]", "value": "significant vs. vehicle"},
      {"measurement": "potency as inhibitor of OCR relative to metformin", "setting": "[6]", "value": "more than 250 fold"},
      {"measurement": "extracellular acidification rate (ECAR)", "setting": "[6]; [11]", "value": "significant inhibition of ECAR without recovery"},
      {"measurement": "oxygen consumption rate (OCR)", "setting": "[6]; [11]", "value": "dose-dependent reduction of OCR"},
      {"measurement": "IC50", "setting": "[7]", "value": 12.5, "unit": "µM"},
      {"measurement": "growth inhibition abrogated by concurrent (±)-14,15-EET", "setting": "[8]; (±)-14,15-EET 1 μM, 24 hours", "value": "abrogated most of the inhibition"},
      {"measurement": "IC50", "setting": "[8]; Homo sapiens, ER+[PR+]", "value": 25.1, "unit": "µM"},
      {"measurement": "Ki", "setting": "[9]; CYP3A4 epoxygenase activity", "value": 9, "unit": "µM"},
      {"measurement": "IC50", "setting": "[9]; read-out: IC50, CYP3A4 synthesis of (±)-8,9-EET", "value": 9.5, "unit": "µM"},
      {"measurement": "IC50", "setting": "[9]; read-out: IC50, CYP3A4 synthesis of (±)-11,12-EET", "value": 8, "unit": "µM"},
      {"measurement": "selectivity ratio at 30 min", "setting": "[10]", "value": "5 to 7"}
    ]}
  ]
}
